# Data from US7759510B2, “Platinum complexes and methods of use” (University of South Florida, priority 2003, dated 2010).
# “Also recorded” adds a separate entry of the source. Where two headings read alike, the source gives them in different places.
# Tests used:
# [1] = biological target: T1, Stat3 (Mus musculus, UniProt P42227); assay: EMSA of nuclear extracts, Stat3 DNA-binding activity to hSIE probe; assay type: biochemical; settings: in vitro
# T1 construct: Nuclear extracts were prepared from NIH3T3/hEGFR cell that overexpress human epidermal growth factor (EGF) receptor and stimulated with EGF; endogenous in cells; host or cells: NIH3T3/hEGFR fibroblasts, EGF-stimulated (6 ng/ml, 15 min), nuclear extract
# Experimental: Nuclear Extract Preparation and Analysis by EMSA of HK-Designated Platinum Complexes.
# Nuclear extracts were prepared from NIH3T3/hEGFR cell that overexpress human epidermal growth factor (EGF) receptor and stimulated with EGF (6 ng/ml) for 15 min. Nuclear extracts were pre-incubated with compounds for 30 min at room temperature prior to incubation with radiolabeled probe. The ^32P-labeled oligonucleotide probe used is hSIE (high affinity sis-inducible element, m67 variant, 5′-[…]-3′) (SEQ ID NO:1) that binds both Stat1 and Stat3.
# Other platinum (IV) complexes were evaluated for inhibitory activity against STAT DNA-binding in vitro.
# [2] = tested on: Stat3; assay: Stat3 signaling, growth inhibition and apoptosis in cells that contain constitutive Stat3 activity; assay type: cell-based; settings: Src-transformed mouse fibroblasts, human tumor cells of the breast, prostate, mouse melanoma cells
# Source text: Methods of the invention comprise inhibiting function of a STAT by contacting a cell expressing a STAT with a platinum complex of the invention wherein the complex is taken in or otherwise provided inside the cell. Platinum complexes of the invention can physically interact with the DNA-binding domain of Stat3 and thereby disrupts its ability to bind to DNA.
# [3] = Reduction of CPA-7 platinum complex by glutathione (UV kinetics at 226 nm); assay type: physicochemical; settings: 20 μm CPA-7 in PBS/20% DMSO with 10 mM glutathione
# Experimental: FIGS. 5A-C show inertness of CPA-7 platinum complex to reduction by glutathione. 20 μm CPA-7 in PBS/20% DMSO with […]. […] Reduction is attributed to room light.
# FIGS. 5A-C show the inertness of CPA-7 to glutathione reduction. In the figures, 20 μm CPA-7 was added in PBS/20% DMSO with 10 mM glutathione. The readings were initiated in late evening where data points were collected every 10 minutes at the lambda max for CPA-7, 226 nm. […] Data was collected on a Varian Cary 50 fitted with a fibreoptic probe in the kinetics mode. The Cary 50 uses a pulsed Xenon lamp with discontinuous irradiation between readings. A 25-mL volumetric flask was used for the solution with a magnetic stirring bar at slow speed.
# [4] = tested on: A549 cells; assay: MTT assay, percent survival of A549 cells; assay type: cell-based; settings: A549; for IC50: Table 2, read-out: Calculated IC 50 (uM concentration)
# Experimental: 1. Prepare a suspension of A549 cells at 2×10^5 cells per mL in supplemented DMEM/F12 growth medium.
# 2. Plate 2×10^4 cells per well in a 96 well cell culture plate by adding 100 μL of stock suspension to each well.
# 3. For each platinum compound (already in solution), prepare a readily usable stock solution in DMEM/F12 medium.
# 4. For each compound generate triplicate trials of 0, 10, 20, 30, 40, 50, 60, and 70 μM concentration. This is achieved in situ by adding appropriate volumes of stock solution to each well along with the volume of untreated medium necessary to generate the desired concentration in a final volume of 200 μL.
# 5. Gently agitate plates to mix contents. Incubate at 37° C., 7% CO2 for 45 hours.
# 6. Add 20 μL of 5 mg/mL MTT solution (in PBS) to each well.
# 7. Gently agitate plates to mix contents and incubate an additional 3 hours to allow product development.
# 8. Remove plates from incubator and agitate to cause settling of formazan product.
# 9. Aspirate out liquid contents of each well using needle and syringe and discard.
# 10. Add 200 μL DMSO to each well to dissolve formazan product.
# 11. Agitate plates until all of the formazan product is in solution and no purple crystals remain on the bottom surface of the wells.
# 12. Read the absorbance of each well at […] using Varian software for Cary 50 UV-vis Spectrophotometer with fiber optic probe accessory.
# (§1) MTT assays are used for the quantitative determination of cellular proliferation and activation and for the quantitation of in vitro tumor cell sensitivity to anti-cancer compounds. The assay is based on the cleavage of the yellow tetrazolium salt MTT into purple colored formazan by metabolically active cells. Solubilized formazan product can be photometrically quantitated using an ELISA plate reader. A decrease in the number of living cells results in a decrease in total metabolic activity which leads to a decrease in color formation. Platinum complexes of the present invention were tested in MTT assays using A549 cells to determine anti-cancer cell activity. […] FIGS. 1, 2, and 4 show percent survival versus platinum complex concentration in graphical form.
# as §1, with “FIGS. 8, 9,” for “FIGS. 1, 2,”, “and 11” for “and 4”
# [5] = linear trend from percent survival vs. concentration data of Table 1
# T1 sequence (P42227 whole entry): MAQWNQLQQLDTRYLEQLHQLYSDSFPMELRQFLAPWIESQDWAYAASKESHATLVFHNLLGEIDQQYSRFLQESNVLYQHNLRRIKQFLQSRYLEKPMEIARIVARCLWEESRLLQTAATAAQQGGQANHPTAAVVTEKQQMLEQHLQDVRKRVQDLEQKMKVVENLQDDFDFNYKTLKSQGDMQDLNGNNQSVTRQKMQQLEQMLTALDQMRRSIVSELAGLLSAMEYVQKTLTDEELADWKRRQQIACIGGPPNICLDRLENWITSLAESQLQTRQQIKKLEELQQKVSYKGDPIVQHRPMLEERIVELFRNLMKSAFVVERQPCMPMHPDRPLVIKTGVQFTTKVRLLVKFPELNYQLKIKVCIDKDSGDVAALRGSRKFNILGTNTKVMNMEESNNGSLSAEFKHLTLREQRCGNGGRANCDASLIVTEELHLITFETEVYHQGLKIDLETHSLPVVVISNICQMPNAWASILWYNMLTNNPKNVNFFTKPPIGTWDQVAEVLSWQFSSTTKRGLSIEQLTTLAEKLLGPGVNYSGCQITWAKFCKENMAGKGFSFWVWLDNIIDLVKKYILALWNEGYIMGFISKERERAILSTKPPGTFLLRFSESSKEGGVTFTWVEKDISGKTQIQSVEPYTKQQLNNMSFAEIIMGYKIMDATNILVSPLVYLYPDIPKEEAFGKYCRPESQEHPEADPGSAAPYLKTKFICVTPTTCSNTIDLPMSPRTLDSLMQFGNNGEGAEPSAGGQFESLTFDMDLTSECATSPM
SMILES,Disruption of Stat3 activity / ability to bind its consensus binding sequence [1],"Average Absorbance ([4]; Table 1, 10 μM)","Percent Survival ([4]; Table 1, 10 μM) [%]","Average Absorbance ([4]; Table 1, 20 μM)","Percent Survival ([4]; Table 1, 20 μM) [%]","Average Absorbance ([4]; Table 1, 30 μM)","Percent Survival ([4]; Table 1, 30 μM) [%]","Average Absorbance ([4]; Table 1, 40 μM)","Percent Survival ([4]; Table 1, 40 μM) [%]","Average Absorbance ([4]; Table 3, 10 μM)","Percent Survival ([4]; Table 3, 10 μM) [%]","Average Absorbance ([4]; Table 3, 20 μM)","Percent Survival ([4]; Table 3, 20 μM) [%]","Average Absorbance ([4]; Table 3, 30 μM)","Percent Survival ([4]; Table 3, 30 μM) [%]","Average Absorbance ([4]; Table 3, 40 μM)","Percent Survival ([4]; Table 3, 40 μM) [%]","Average Absorbance ([4]; Table 3, 50 μM)","Percent Survival ([4]; Table 3, 50 μM) [%]","Average Absorbance ([4]; Table 3, 60 μM)",further results
[NH2][Pt]([NH2])([Cl])([Cl])([Cl])[N+](=O)[O-] [CPA-7],strongly disrupt Stat3 activity,,,,,,,,,,,,,,,,,,,,Cell growth inhibition and apoptosis [2]: induce cell growth inhibition and apoptosis; Stat3 signaling function [2]: abrogate Stat3 signaling function; Reduction by glutathione (GSH) [3]: stability against GSH reduction; also recorded: not appreciably reduced by GSH; Sensitivity to light (reduction by room light) [3]: sensitivity to light
CCN(CC)c1ccc2c(-c3ccccc3C(=O)O)c3ccc(=[N+](CC)CC)cc-3[o+]([Pt]([NH2])([NH2])([Cl])([Cl])[N+](=O)[O-])c2c1.[Cl-] [CPA-46],strongly disrupt Stat3 activity,2.4032,101.7831,2.2978,97.3190,2.2671,96.0188,1.8618,78.8531,2.5773,105.5017,2.4118,98.7269,1.9637,80.3840,1.2044,49.3021,0.6282,25.7153,0.6446,"Average Absorbance ([4]; Table 1, 50 μM): 1.0285; Percent Survival ([4]; Table 1, 50 μM): 43.5602%; Average Absorbance ([4]; Table 1, 60 μM): 0.7041; Percent Survival ([4]; Table 1, 60 μM): 29.8208%; IC50 [4, 5]: 52.9 µM; Percent Survival ([4]; Table 3, 60 μM): 26.3867%; Average Absorbance ([4]; Table 3, 70 μM): 0.6165; Percent Survival ([4]; Table 3, 70 μM): 25.2364%"
[NH2][Pt]([NH2])([Cl])([Cl])([N]1C(=O)CC(C(=O)O)NC1=O)[N+](=O)[O-] (centres unmarked) [CPA-55],strongly disrupt Stat3 activity,2.4481,103.6847,2.3731,100.5082,2.3268,98.5473,1.3780,58.3626,2.4587,100.6468,2.4875,101.8257,1.6902,69.1883,0.6503,26.6200,0.4894,20.0336,0.7082,"IC50 ([4]; extrapolated from incomplete data (10-40 uM; CPA-31 10-30 μM), outside the measured range): 54.2 µM; Percent Survival ([4]; Table 3, 60 μM): 28.9901%; Average Absorbance ([4]; Table 3, 70 μM): 0.5733; Percent Survival ([4]; Table 3, 70 μM): 23.4680%"
O=[N+]([O-])[Pt]1([Cl])([Cl])([Cl])[NH]CC[NH]1 [CPA-1],,,,,,,,,,,,,,,,,,,,,Cell growth inhibition and apoptosis [2]: induce cell growth inhibition and apoptosis; Stat3 signaling function [2]: abrogate Stat3 signaling function
[NH2][Pt]([NH2])([Cl])([Cl])([N+](=O)[O-])[o+]1c2cc(=O)ccc-2c(-c2ccccc2C(=O)O)c2ccc(O)cc21 [CPA-39],strongly disrupt Stat3 activity,2.5313,107.2085,2.4307,102.9478,2.3599,99.9492,1.9611,83.0587,2.6556,108.7069,2.4616,100.7655,2.0894,85.5295,1.3568,55.5405,0.6566,26.8779,0.6086,"Average Absorbance ([4]; Table 1, 50 μM): 1.0318; Percent Survival ([4]; Table 1, 50 μM): 43.7000%; Average Absorbance ([4]; Table 1, 60 μM): 0.7776; Percent Survival ([4]; Table 1, 60 μM): 32.9338%; Average Absorbance ([4]; Table 1, 70 μM): 0.9798; Percent Survival ([4]; Table 1, 70 μM): 41.4976%; IC50 [4, 5]: 56.4 µM; Percent Survival ([4]; Table 3, 60 μM): 24.9130%; Average Absorbance ([4]; Table 3, 70 μM): 0.6166; Percent Survival ([4]; Table 3, 70 μM): 25.2405%"
